Results taken from the NIST ThermoML archive (doi:10.1016/j.jct.2014.03.022).

Assay: xn = mol fraction of the nth substance listed
Settings: for surface tension liquid-gas: Wilhelmy plate method; for viscosity: 101.3 kPa, Liquid, Concentric cylinders viscometry

CCCCCCCCCCO [decan-1-ol] + CN(C)C=O
Settings	surface tension liquid-gas, 298.15 K [mN/m]	surface tension liquid-gas, 303.15 K [mN/m]	surface tension liquid-gas, 308.15 K [mN/m]	surface tension liquid-gas, 313.15 K [mN/m]	viscosity, 298.15 K [mPa·s]	viscosity, 303.15 K [mPa·s]	viscosity, 308.15 K [mPa·s]	viscosity, 313.15 K [mPa·s]
x2 = 0	28.35	27.29	26.23	25.17	11.83	9.754	8.135	6.842
x2 = 0.2361	28.83	27.74	26.67	25.61	4.984	3.776	2.992	2.357
x2 = 0.4193	29.21	28.08	26.99	25.92	2.622	1.816	1.359	0.9811
x2 = 0.5688	29.6	28.43	27.31	26.23	1.623	1.092	0.7935	0.5801
x2 = 0.6724	30.14	28.95	27.82	26.74	1.238	0.8423	0.6257	0.47
x2 = 0.7496	30.78	29.6	28.46	27.38	1.03	0.7268	0.5631	0.443
x2 = 0.8185	31.61	30.43	29.3	28.23	0.9299	0.7011	0.5754	0.479
x2 = 0.8748	32.48	31.32	30.2	29.15	0.8732	0.7131	0.6216	0.5385
x2 = 0.923	33.41	32.27	31.15	30.12	0.8501	0.7459	0.6802	0.6027
x2 = 0.9632	34.3	33.18	32.07	31.05	0.8317	0.7627	0.7103	0.6468
